Assay results taken from US11389415B2, “Methods of regulating cannabinoid receptor activity-related disorders and diseases” (The United States of America as represented by the …, priority 2012, dated 2022).
Like-named read-outs stand apart in the source and are kept apart here.

Legend:
[1] = system: LN229; assay: [3H]-Thymidine incorporation in 96-well plates (Thy), LN229; details: read-out: IC50 (uM), LN229 (CNS Cancer)
[2] = system: Du-145; assay: tumor cell growth, Du-145; details: read-out: IC50 (uM), Du-145 (Prostate C); Table 6
[3] = system: NCIH460; assay: Thymidine (Thy) 96 well, NCIH460; details: read-out: IC50 (uM), NCIH460 (NSCLC)
[4] = system: A172; assay: tumor cell growth, A172; details: Table 6
[5] = system: LN-18; assay: tumor cell growth, LN-18; details: Table 6
[6] = system: GL261; assay: tumor cell growth, GL261; details: Table 6
[7] = system: MDAMB231; assay: tumor cell growth, MDAMB231; details: Table 6
[8] = system: PC3; assay: [3H]-Thymidine incorporation in 96-well plates (Thy), PC3; details: read-out: IC50 (uM), PC3 (Prostrate Cancer)
[9] = system: CAPAN; assay: tumor cell growth, CAPAN; details: Table 6
[10] = system: HEP3B; assay: tumor cell growth (CTG), HEP3B
[11] = system: MCF7; assay: tumor cell growth, MCF7; details: Table 6
[12] = system: HEPG2; assay: tumor cell growth, HEPG2; details: Table 6
[13] = system: U251; assay: tumor cell growth, U251; details: Table 6
[14] = system: A549; assay: tumor cell growth, A549; details: read-out: IC50 (uM), A549 (NSCLC); Table 6
[15] = system: HEP3B; assay: [3H]-Thymidine incorporation in 96-well plates (Thy), HEP3B; details: read-out: IC50 (uM), HEP3B (Liver Cancer)
[16] = system: HCT116; assay: Thymidine (Thy) 96 well, HCT116; details: read-out: IC50 (uM), HCT116 (Colon Cancer)
[17] = system: PANC-1; assay: tumor cell growth, PANC-1; details: Table 6
[18] = system: H460; assay: tumor cell growth (CTG), H460 / NCIH460
[19] = system: HCT116; assay: tumor cell growth (CTG), HCT116
[20] = system: LN-229; assay: tumor cell growth (CTG), LN-229 / LN229
[21] = system: PC3; assay: tumor cell growth (CTG), PC3
[22] = system: HT29; assay: tumor cell growth (CTG), HT29
[23] = system: HT29; assay: Thymidine (Thy) 96 well, HT29; details: read-out: IC50 (uM), HT29 (Colon Cancer)
[24] = system: U87; assay: tumor cell growth, U87; details: Table 6
[25] = system: U118; assay: tumor cell growth, U118; details: read-out: IC50 (uM), U118 (CNS); Table 6

## COc1ccc(C[C@@H](C)NC[C@H](O)c2cc(O)cc(O)c2)cc1 [RR-MF, (R,R′)-4-methoxyfenoterol]
[1]; 96 well Thy 2 days treatment
  IC50: > 50 µM
[1]; 96 well Tye 1 day treatment
  IC50: > 50 µM
[2]
  IC50: > 50 µM
[3]; 96 well Thy 2 days treatment
  IC50: > 50 µM
[3]; 96 well Tye 1 day treatment
  IC50: > 50 µM
[4]
  IC50 (uM), A172 (CNS): N.E.?
[5]
  IC50 (uM), LN-18 (CNS): N.E.?
[6]
  IC50 (uM), GL261 (CNS): N.E.?
[7]
  IC50 (uM), MDAMB231 (Breast C): N.E.
[8]; 96 well Thy 2 days treatment
  IC50: > 50 µM
[8]; 96 well Tye 1 day treatment
  IC50: > 50 µM
[9]
  IC50 (uM), CAPAN (Pancreatic C): N.E.
[10]; read-out: IC50 (uM), HEP3B (Liver C), Table 6
  IC50: > 50 µM
[10]; read-out: IC50 (uM), HEP3B (Liver Cancer), 96 well CTG 1 day treatment
  IC50: > 50 µM
[10]; read-out: IC50 (uM), HEP3B (Liver Cancer), 96 well CTG 2 days treatment
  IC50: > 50 µM
[10]; read-out: IC50 (uM), HEP3B (Liver Cancer), 384well CTG 3 days treatment −1
  IC50: > 50 µM
[10]; read-out: IC50 (uM), HEP3B (Liver Cancer), 384well CTG 3 days treatment −2
  IC50: > 50 µM
[11]
  IC50 (uM), MCF7 (Breast C): N.E.
[12]
  IC50 (uM), HEPG2 (Liver C): N.E.
[13]
  IC50 (uM), U251 (CNS): N.E.
[14]
  IC50: > 50 µM
[15]; 96 well Thy 2 days treatment
  IC50: 2.35 µM
[15]; 96 well Tye 1 day treatment
  IC50: 2.4 µM
[16]; 96 well Thy 2 days treatment
  IC50: > 50 µM
[16]; 96 well Tye 1 day treatment
  IC50: > 50 µM
[17]
  IC50 (uM), PANC-1 (Pancreatic C): N.E.
[18]; read-out: IC50 (uM), H460 (NSCLC), Table 6
  IC50: > 50 µM
[18]; read-out: IC50 (uM), NCIH460 (NSCLC), 96 well CTG 1 day treatment
  IC50: > 50 µM
[18]; read-out: IC50 (uM), NCIH460 (NSCLC), 96 well CTG 2 days treatment
  IC50: > 50 µM
[18]; read-out: IC50 (uM), NCIH460 (NSCLC), 384well CTG 3 days treatment −1
  IC50: > 50 µM
[18]; read-out: IC50 (uM), NCIH460 (NSCLC), 384well CTG 3 days treatment −2
  IC50: > 50 µM
[19]; read-out: IC50 (uM), HCT116 (Colon C), Table 6
  IC50: > 50 µM
[19]; read-out: IC50 (uM), HCT116 (Colon Cancer), 96 well CTG 1 day treatment
  IC50: > 50 µM
[19]; read-out: IC50 (uM), HCT116 (Colon Cancer), 96 well CTG 2 days treatment
  IC50: > 50 µM
[19]; read-out: IC50 (uM), HCT116 (Colon Cancer), 384well CTG 3 days treatment −1
  IC50: > 50 µM
[19]; read-out: IC50 (uM), HCT116 (Colon Cancer), 384well CTG 3 days treatment −2
  IC50: > 50 µM
[20]; read-out: IC50 (uM), LN229 (CNS Cancer), 96 well CTG 1 day treatment
  IC50: > 50 µM
[20]; read-out: IC50 (uM), LN229 (CNS Cancer), 96 well CTG 2 days treatment
  IC50: > 50 µM
[20]; read-out: IC50 (uM), LN229 (CNS Cancer), 384well CTG 3 days treatment −1
  IC50: > 50 µM
[20]; read-out: IC50 (uM), LN-229 (CNS), Table 6
  IC50: > 50 µM
[21]; read-out: IC50 (uM), PC3 (Prostate C), Table 6
  IC50: > 50 µM
[21]; read-out: IC50 (uM), PC3 (Prostrate Cancer), 96 well CTG 1 day treatment
  IC50: > 50 µM
[21]; read-out: IC50 (uM), PC3 (Prostrate Cancer), 96 well CTG 2 days treatment
  IC50: > 50 µM
[21]; read-out: IC50 (uM), PC3 (Prostrate Cancer), 384well CTG 3 days treatment −1
  IC50: > 50 µM
[22]; read-out: IC50 (uM), HT29 (Colon C), Table 6
  IC50: > 50 µM
[22]; read-out: IC50 (uM), HT29 (Colon Cancer), 96 well CTG 1 day treatment
  IC50: > 50 µM
[22]; read-out: IC50 (uM), HT29 (Colon Cancer), 96 well CTG 2 days treatment
  IC50: > 50 µM
[22]; read-out: IC50 (uM), HT29 (Colon Cancer), 384well CTG 3 days treatment −1
  IC50: > 50 µM
[23]; 96 well Thy 2 days treatment
  IC50: > 50 µM
[23]; 96 well Tye 1 day treatment
  IC50: > 50 µM
[24]
  IC50 (uM), U87 (CNS): N.E.
[25]
  IC50: > 50 µM
